Data published in the supplement of paper PMC11208160.

Assay: recombinant UMI read abundance after kanamycin selection (control-corrected) (log10(CPM+1)); higher = more efficient recombination; extreme values may be limits of the assay; sequences stand for … in AGTGCAGAGAAAATCGGCCAGTTTTCTCTGCCTGCAGTCCGCATGCCGTGGGACCCCTTGGGTTCTAACCTGTTGCCTAGATTTATGCAGCGGACTGCCTTTCTCCCAAAGTGATAAACCGG…AGGTTGGTTTCACT; site = the 11-nt donor
How it was run: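 In a pooled Escherichia coli screen for the IS621 bridge recombinase, donor and donor-binding-loop pairs were each placed with a 12-nt UMI on a plasmid bearing a promoterless kanamycin gene. This library was co-electroporated with a target plasmid encoding a fixed target and T7-inducible recombinase, and cells were plated either on IPTG (0.07 mM) plus kanamycin or without selection, in two replicates each. Recombinant UMIs were PCR-amplified across the donor–target junction and sequenced, and counts were converted to CPM, averaged over replicates, scaled by control-derived factors and reported as log10(CPM+1).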
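Further: IS621 bridge recombinase in Escherichia coli cells against a fixed T5 target plasmid.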

Sequence	recombinant UMI read abundance (log10)
TACTCGACATGGACCGGTTTTCCCGGTAATCCGTATTTGCT (site TACTTGACTAG)	1.01
TACTCGACATGGACCGGTTTTCCCGGTAATCCGTATTTGTC (site TACTCGACTGA)	0.0119
TACTGCGCATGGACCGGTTTTCCCGGTAATCCGTATTTGAC (site TACTGCGCTGT)	1.9
TACTGGTCATGGACCGGTTTTCCCGGTAATCCGTATTTGAC (site TACTGGTCTGT)	1.07
TACTTCGCATGGACCGGTTTTCCCGGTAATCCGTATTTGAT (site TACTTCGCTAT)	0.583
TACTTCTCATGGACCGGTTTTCCCGGTAATCCGTATTTGTT (site TACTTCTCTAA)	1.35
TACTTGACATGGACCGGTTTTCCCGGTAATCCGTATTTGAT (site TACTTGACTAA)	0.0207
TACTTGACATGGACCGGTTTTCCCGGTAATCCGTATTTGAT (site TACTTGACTAC)	0.015
TACTTGACATGGACCGGTTTTCCCGGTAATCCGTATTTGAT (site TACTTGACTAG)	0.00211
TACTTGACATGGACCGGTTTTCCCGGTAATCCGTATTTGAT (site TACTTGACTAT)	0.476
TACTTGACATGGACCGGTTTTCCCGGTAATCCGTATTTGCG (site TACTTGACTAG)	0.00183
TACTTGACATGGACCGGTTTTCCCGGTAATCCGTATTTGCG (site TACTTGACTCG)	0.524
TACTTGACATGGACCGGTTTTCCCGGTAATCCGTATTTGCG (site TACTTGACTGG)	0
TACTTGACATGGACCGGTTTTCCCGGTAATCCGTATTTGCG (site TACTTGACTTG)	0
TACTTGACATGGACCGGTTTTCCCGGTAATCCGTATTTGTT (site TACTTGACTAA)	0.00709
TACTTGACATGGACCGGTTTTCCCGGTAATCCGTATTTGTT (site TACTTGACTAC)	0.0106
TACTTGACATGGACCGGTTTTCCCGGTAATCCGTATTTGTT (site TACTTGACTAG)	0.00636
TACTTGACATGGACCGGTTTTCCCGGTAATCCGTATTTGTT (site TACTTGACTAT)	0.00466
TACTTGGCATGGACCGGTTTTCCCGGTAATCCGTATTTGCT (site TACTTGACTAG)	0.00409
TACTTGGCATGGACCGGTTTTCCCGGTAATCCGTATTTGCT (site TACTTGCCTAG)	0.00558
TACTTGGCATGGACCGGTTTTCCCGGTAATCCGTATTTGCT (site TACTTGGCTAG)	0.00377
TACTTGGCATGGACCGGTTTTCCCGGTAATCCGTATTTGCT (site TACTTGTCTAG)	0
TACTTGGCATGGACCGGTTTTCCCGGTAATCCGTATTTGGA (site AACTTGGCTTC)	0.0162

Sequence	recombinant UMI read abundance (log10)
TACTTGGCATGGACCGGTTTTCCCGGTAATCCGTATTTGGA (site CACTTGGCTTC)	0.00371
TACTTGGCATGGACCGGTTTTCCCGGTAATCCGTATTTGGA (site GACTTGGCTTC)	0.00882
TACTTGGCATGGACCGGTTTTCCCGGTAATCCGTATTTGGA (site TACTTGGCTTC)	0.216
TACTTGTCATGGACCGGTTTTCCCGGTAATCCGTATTTGGG (site TACTTGTCTCC)	0.17
TACTTTACATGGACCGGTTTTCCCGGTAATCCGTATTTGCT (site TACTTAACTAG)	0
TACTTTACATGGACCGGTTTTCCCGGTAATCCGTATTTGCT (site TACTTCACTAG)	1.36
TACTTTACATGGACCGGTTTTCCCGGTAATCCGTATTTGCT (site TACTTGACTAG)	0.00292
TACTTTACATGGACCGGTTTTCCCGGTAATCCGTATTTGCT (site TACTTTACTAG)	1.01
TAGAATACATGGACCGGTTTTCCCGGTAATCCGTATTTGGA (site TAGAATACTTA)	0.00272
TAGAATACATGGACCGGTTTTCCCGGTAATCCGTATTTGGA (site TAGAATACTTC)	1.99
TAGAATACATGGACCGGTTTTCCCGGTAATCCGTATTTGGA (site TAGAATACTTG)	0
TAGAATACATGGACCGGTTTTCCCGGTAATCCGTATTTGGA (site TAGAATACTTT)	0.731
TAGACAACATGGACCGGTTTTCCCGGTAATCCGTATTTGAG (site TAGACAACTCT)	0.821
TAGAGCGCATGGACCGGTTTTCCCGGTAATCCGTATTTGTG (site TAGAGCGCTCA)	1.05
TAGAGTACATGGACCGGTTTTCCCGGTAATCCGTATTTGCA (site TAGAATACTTG)	1.37
TAGAGTACATGGACCGGTTTTCCCGGTAATCCGTATTTGCA (site TAGACTACTTG)	0.88
TAGAGTACATGGACCGGTTTTCCCGGTAATCCGTATTTGCA (site TAGAGTACTTG)	2.08
TAGAGTACATGGACCGGTTTTCCCGGTAATCCGTATTTGCA (site TAGATTACTTG)	0
TAGATAACATGGACCGGTTTTCCCGGTAATCCGTATTTGTG (site TAGATAACTCA)	1.2
TAGATAGCATGGACCGGTTTTCCCGGTAATCCGTATTTGAA (site TAGATAGCTTT)	2.07
TAGATAGCATGGACCGGTTTTCCCGGTAATCCGTATTTGAA (site TAGCTAGCTTT)	0.0111
TAGATAGCATGGACCGGTTTTCCCGGTAATCCGTATTTGAA (site TAGGTAGCTTT)	0.0819
TAGATAGCATGGACCGGTTTTCCCGGTAATCCGTATTTGAA (site TAGTTAGCTTT)	0.173

Sequence	recombinant UMI read abundance (log10)
TAGCACGCATGGACCGGTTTTCCCGGTAATCCGTATTTGGG (site AAGCACGCTCC)	0.0104
TAGCACGCATGGACCGGTTTTCCCGGTAATCCGTATTTGGG (site CAGCACGCTCC)	0.00759
TAGCACGCATGGACCGGTTTTCCCGGTAATCCGTATTTGGG (site GAGCACGCTCC)	0.0209
TAGCACGCATGGACCGGTTTTCCCGGTAATCCGTATTTGGG (site TAGCACGCTCC)	0.0358
TAGCCGTCATGGACCGGTTTTCCCGGTAATCCGTATTTGGT (site TAGCCATCTAC)	0.764
TAGCCGTCATGGACCGGTTTTCCCGGTAATCCGTATTTGGT (site TAGCCCTCTAC)	0
TAGCCGTCATGGACCGGTTTTCCCGGTAATCCGTATTTGGT (site TAGCCGTCTAC)	0.776
TAGCCGTCATGGACCGGTTTTCCCGGTAATCCGTATTTGGT (site TAGCCTTCTAC)	0.013
TAGCCTTCATGGACCGGTTTTCCCGGTAATCCGTATTTGGA (site TAGCCTTCTAC)	0.0179
TAGCCTTCATGGACCGGTTTTCCCGGTAATCCGTATTTGGA (site TAGCCTTCTCC)	0.02
TAGCCTTCATGGACCGGTTTTCCCGGTAATCCGTATTTGGA (site TAGCCTTCTGC)	0
TAGCCTTCATGGACCGGTTTTCCCGGTAATCCGTATTTGGA (site TAGCCTTCTTC)	0.00303
TAGCCTTCATGGACCGGTTTTCCCGGTAATCCGTATTTGGG (site TAGCCTTCTAC)	0
TAGCCTTCATGGACCGGTTTTCCCGGTAATCCGTATTTGGG (site TAGCCTTCTCC)	0.0175
TAGCCTTCATGGACCGGTTTTCCCGGTAATCCGTATTTGGG (site TAGCCTTCTGC)	0
TAGCCTTCATGGACCGGTTTTCCCGGTAATCCGTATTTGGG (site TAGCCTTCTTC)	0.0097
TAGCGAACATGGACCGGTTTTCCCGGTAATCCGTATTTGGA (site TAGCGAACTTC)	1.05
TAGCGAGCATGGACCGGTTTTCCCGGTAATCCGTATTTGAA (site TAGCAAGCTTT)	1.3
TAGCGAGCATGGACCGGTTTTCCCGGTAATCCGTATTTGAA (site TAGCCAGCTTT)	0.0145
TAGCGAGCATGGACCGGTTTTCCCGGTAATCCGTATTTGAA (site TAGCGAGCTTT)	1.41
TAGCGAGCATGGACCGGTTTTCCCGGTAATCCGTATTTGAA (site TAGCTAGCTTT)	0.00707
TAGCGAGCATGGACCGGTTTTCCCGGTAATCCGTATTTGTA (site TAGCGAGCTTA)	1.82
